We go through seven compounds from ChEMBL document CHEMBL1201862, “PubChem BioAssay data set” (2004).

Activity calls are given as the source filed them. Where only a bound is given, the exact number is not on record here.

The nature of test [1]: Luminescence Cell-Based/Microorganism Confirmation at Dose of Inhibitors of Trypanosoma cruzi Infection. [Related pubchem assays: 1885, 1968 ]. Format: functional.
The nature of test [2]: inhibitors of intracellular T. cruzi replication, confirmation, NIH3T3 host cells, beta-gal luminescence (AID 2044).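 Further: intracellular parasites grown in NIH/3T3 mouse fibroblasts as host cells; luminescent beta-galactosidase reporter signal from transgenic T. cruzi replicating inside host cells; inhibitors lower the luminescence signal.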 The format is functional, cell-based.
Test [3] can be described thus: Luminescence Cell-Based Secondary HTS screen to identify cytotoxic compounds of NIH3T3 cells. [Related pubchem assays: 1885, 1968 ]. The format is functional.
Test [4] is described as follows: cytotoxicity toward NIH3T3 fibroblasts, dose response, counter-screen, cell-based, ATP luminescence, mouse fibroblasts (AID 2010).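 Further: cells exposed to compound for about 90 hours before reading.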 The format is functional.
Test [5] is described as follows: inhibitors of Trypanosoma cruzi host-cell infection, confirmation, beta-gal luminescence, NIH3T3 host cells (AID 2630). The format is functional, cell-based. To be noted: Mus musculus.
The target in a further test is Nonstructural protein 1 (Influenza A virus, UniProt Q194T2). The format is functional, Influenza A virus (A/California/07/2009(H1N1)).
Chain of Nonstructural protein 1 (Q194T2 whole entry): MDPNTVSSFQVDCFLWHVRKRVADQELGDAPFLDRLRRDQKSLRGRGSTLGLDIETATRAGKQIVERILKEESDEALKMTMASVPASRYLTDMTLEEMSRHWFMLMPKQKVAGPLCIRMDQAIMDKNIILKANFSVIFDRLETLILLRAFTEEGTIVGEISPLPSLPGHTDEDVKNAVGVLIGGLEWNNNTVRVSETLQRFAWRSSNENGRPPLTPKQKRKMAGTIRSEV
Test [6] relates to MDCK. Put plainly: antiviral activity against H1N1 influenza, dose response, cell-based, strain KY180 (AID 540254). The format is functional. To be noted: Canis lupus familiaris.
In test [7] the test system is MDCK. Put plainly: MDCK cell cytotoxicity, dose response, cytotoxicity control (AID 540296). The format is functional. To be noted: Canis lupus familiaris.
For another test, the target named is Keap1/Nrf2 (Homo sapiens, UniProt Q14145). Put plainly: Keap1-Nrf2 protein-protein interaction inhibitors, dose response, biochemical, fluorescence polarization, cherry-picked samples (AID 588683). (In general: Polarisation of emitted light reports the rotation of a fluorescent probe.)
Chain of Keap1/Nrf2 (Q16236 whole entry): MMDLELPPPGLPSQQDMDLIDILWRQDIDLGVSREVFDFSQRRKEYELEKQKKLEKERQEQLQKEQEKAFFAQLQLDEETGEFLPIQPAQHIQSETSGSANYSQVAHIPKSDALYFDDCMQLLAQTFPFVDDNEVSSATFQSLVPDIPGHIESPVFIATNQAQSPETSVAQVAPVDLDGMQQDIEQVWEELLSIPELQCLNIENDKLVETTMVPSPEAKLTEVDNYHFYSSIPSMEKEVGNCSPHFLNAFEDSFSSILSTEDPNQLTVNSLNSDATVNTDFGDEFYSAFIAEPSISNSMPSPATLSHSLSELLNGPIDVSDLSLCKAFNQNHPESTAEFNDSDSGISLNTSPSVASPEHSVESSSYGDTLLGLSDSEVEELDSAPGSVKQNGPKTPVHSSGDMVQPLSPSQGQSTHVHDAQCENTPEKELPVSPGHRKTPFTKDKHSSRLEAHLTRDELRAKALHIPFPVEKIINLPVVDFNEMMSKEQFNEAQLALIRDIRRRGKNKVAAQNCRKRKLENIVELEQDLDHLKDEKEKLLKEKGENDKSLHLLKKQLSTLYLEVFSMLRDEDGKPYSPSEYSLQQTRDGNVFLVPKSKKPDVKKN
Chain of Keap1/Nrf2 (Q14145 whole entry): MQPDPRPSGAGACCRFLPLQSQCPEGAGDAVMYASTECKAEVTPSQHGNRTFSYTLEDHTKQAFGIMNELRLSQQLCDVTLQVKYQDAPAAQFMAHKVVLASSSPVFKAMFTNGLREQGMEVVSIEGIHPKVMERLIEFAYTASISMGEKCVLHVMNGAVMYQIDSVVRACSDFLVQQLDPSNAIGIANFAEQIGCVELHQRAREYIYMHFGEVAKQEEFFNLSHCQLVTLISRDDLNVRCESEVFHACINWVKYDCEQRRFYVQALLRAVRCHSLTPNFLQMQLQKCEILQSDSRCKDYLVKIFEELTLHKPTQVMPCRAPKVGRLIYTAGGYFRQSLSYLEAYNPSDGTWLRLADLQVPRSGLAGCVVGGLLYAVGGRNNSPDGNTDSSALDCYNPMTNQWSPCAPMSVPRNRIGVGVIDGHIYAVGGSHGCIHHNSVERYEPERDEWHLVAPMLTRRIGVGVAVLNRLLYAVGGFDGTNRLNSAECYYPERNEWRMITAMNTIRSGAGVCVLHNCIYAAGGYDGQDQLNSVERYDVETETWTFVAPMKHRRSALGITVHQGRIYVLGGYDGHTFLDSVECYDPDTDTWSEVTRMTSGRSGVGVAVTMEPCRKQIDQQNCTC
Test [8] addresses Intestinal-type alkaline phosphatase (Mus musculus, UniProt P24822). In words: PubChem AID 488875. Format: functional.
Test [9] addresses T1, Intestinal-type alkaline phosphatase (Homo sapiens, UniProt P09923). Put plainly: human intestinal alkaline phosphatase activators, dose response, biochemical, luminescence, uHTS hits (AID 463120). The format is functional.
In test [10] the target is T1, Intestinal-type alkaline phosphatase. Put plainly: human IAP activators, dose response, biochemical, luminescent, uHTS hits, set 2 (AID 488817).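 Further: potency of activators that raise enzyme activity.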 Format: functional.
Test [11] has as its target T2, Alkaline phosphatase, tissue-nonspecific isozyme (Homo sapiens, UniProt P05186).
T2 sequence (P05186 whole entry): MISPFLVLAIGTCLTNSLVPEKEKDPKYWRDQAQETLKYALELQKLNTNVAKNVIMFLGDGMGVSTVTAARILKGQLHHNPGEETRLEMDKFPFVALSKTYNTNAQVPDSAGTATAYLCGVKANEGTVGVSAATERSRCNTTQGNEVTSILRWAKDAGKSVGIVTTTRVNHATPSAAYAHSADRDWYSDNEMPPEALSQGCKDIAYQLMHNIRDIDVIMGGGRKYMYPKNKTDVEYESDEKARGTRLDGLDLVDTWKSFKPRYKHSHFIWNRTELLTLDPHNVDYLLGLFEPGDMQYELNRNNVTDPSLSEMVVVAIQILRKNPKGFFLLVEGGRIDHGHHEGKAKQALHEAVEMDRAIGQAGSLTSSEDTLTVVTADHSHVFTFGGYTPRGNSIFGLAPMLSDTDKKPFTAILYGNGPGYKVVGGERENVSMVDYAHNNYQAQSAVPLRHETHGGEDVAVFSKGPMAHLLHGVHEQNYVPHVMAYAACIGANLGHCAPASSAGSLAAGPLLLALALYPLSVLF
In words: TNAP enzyme activators, dose response, selectivity assay for human IAP activator project, biochemical, TNAP isozyme, human IAP uHTS hits (AID 488886).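 Further: potency of compounds raising TNAP activity as a selectivity check on IAP activators.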 The format is functional.

The nature of test [12]: Luminescence Cell-Based Dose Retest to Confirm Inhibitors of Cancer Stem Cells. [Related pubchem assays (depositor defined):AID2717, AID2721]. To be noted: Homo sapiens. Format: functional.
The nature of test [13]: cytotoxicity in HMLE control line with eGFP shRNA, dose response, counter-screen for HMLE_sh_ECad selective toxicity project, cell-based, HMLE_sh_eGFP, luminescence (AID 463074).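 Further: HMLE human mammary epithelial cells expressing control shRNA against eGFP.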 The format is functional, Homo sapiens. A general note: A counterscreen serves to expose hits that act by an unwanted route or on another target.
The target in test [14] is T3, Mannose-6-phosphate isomerase (Homo sapiens, UniProt P34949).
T3 sequence (P34949 whole entry): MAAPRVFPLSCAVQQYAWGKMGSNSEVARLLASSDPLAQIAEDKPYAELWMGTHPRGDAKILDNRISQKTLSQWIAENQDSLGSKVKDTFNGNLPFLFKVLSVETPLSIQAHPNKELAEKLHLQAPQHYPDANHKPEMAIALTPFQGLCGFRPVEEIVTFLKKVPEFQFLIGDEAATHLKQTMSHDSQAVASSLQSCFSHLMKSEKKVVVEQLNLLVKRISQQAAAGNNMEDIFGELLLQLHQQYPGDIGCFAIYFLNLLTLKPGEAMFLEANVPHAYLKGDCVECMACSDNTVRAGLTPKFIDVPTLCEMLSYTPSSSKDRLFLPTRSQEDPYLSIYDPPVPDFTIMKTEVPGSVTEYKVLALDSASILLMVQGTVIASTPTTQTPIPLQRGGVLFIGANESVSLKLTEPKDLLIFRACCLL
In words: PMI enzyme inhibitors, confirmation, biochemical, fluorescence intensity (AID 1535).

In another test the target is Phosphomannomutase 2 (Homo sapiens, UniProt O15305). Put plainly: Counter screen SAR assay for PMM2 inhibitors via a fluorescence intensity assay. [Related pubchem assays (depositor defined):AID1545, AID1574].
Chain of Phosphomannomutase 2 (O15305 whole entry): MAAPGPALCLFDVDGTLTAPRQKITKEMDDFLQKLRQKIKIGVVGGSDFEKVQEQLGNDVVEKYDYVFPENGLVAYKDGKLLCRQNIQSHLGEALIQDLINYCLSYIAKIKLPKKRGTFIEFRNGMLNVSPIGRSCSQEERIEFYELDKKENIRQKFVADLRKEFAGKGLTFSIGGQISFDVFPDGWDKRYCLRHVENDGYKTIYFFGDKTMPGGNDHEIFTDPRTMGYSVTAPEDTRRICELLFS
Test [15] has as its target Phosphoethanolamine/phosphocholine phosphatase (Homo sapiens, UniProt Q8TCT1). Put plainly: SAR assay for compounds that inhibit PHOSPHO1. [Related pubchem assays (depositor defined):AID1545, AID1565, AID1574].
Test [16] deals with T4, Short transient receptor potential channel 4 (Mus musculus, UniProt Q9QUQ5).
T4 sequence (Q9QUQ5 whole entry): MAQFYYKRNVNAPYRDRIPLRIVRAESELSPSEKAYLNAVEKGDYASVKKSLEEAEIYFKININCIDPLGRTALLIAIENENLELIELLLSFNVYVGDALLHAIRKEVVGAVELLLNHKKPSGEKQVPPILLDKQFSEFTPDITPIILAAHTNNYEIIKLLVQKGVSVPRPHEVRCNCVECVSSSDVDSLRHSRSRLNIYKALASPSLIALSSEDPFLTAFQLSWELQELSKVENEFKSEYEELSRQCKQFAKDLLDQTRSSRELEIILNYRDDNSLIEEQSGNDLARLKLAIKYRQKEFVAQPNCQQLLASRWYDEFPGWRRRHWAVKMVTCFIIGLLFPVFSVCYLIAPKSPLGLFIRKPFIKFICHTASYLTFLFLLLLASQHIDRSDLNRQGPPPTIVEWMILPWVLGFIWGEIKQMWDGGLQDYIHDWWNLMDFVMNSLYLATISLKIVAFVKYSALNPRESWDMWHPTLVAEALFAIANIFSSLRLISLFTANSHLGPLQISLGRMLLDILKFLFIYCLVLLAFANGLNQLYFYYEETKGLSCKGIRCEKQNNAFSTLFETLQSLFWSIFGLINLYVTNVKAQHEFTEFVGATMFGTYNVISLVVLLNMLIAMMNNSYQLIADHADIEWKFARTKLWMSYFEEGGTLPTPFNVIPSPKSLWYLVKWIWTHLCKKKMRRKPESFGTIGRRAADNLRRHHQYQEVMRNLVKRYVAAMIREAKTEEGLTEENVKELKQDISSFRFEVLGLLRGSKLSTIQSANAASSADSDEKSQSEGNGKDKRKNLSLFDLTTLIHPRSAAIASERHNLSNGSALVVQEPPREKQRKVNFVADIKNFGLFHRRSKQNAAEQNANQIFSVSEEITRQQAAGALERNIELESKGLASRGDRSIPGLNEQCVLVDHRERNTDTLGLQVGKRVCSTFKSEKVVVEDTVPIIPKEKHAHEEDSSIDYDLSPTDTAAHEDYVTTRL
In words: SAR Analysis for the identification of selective inhibits of the transient receptor potential cation channel C4 (TRPC4): Automated Electrophysiology_2. [Related pubchem assays (depositor defined):AID2256]. The format is functional.

T1 sequence (P09923 whole entry): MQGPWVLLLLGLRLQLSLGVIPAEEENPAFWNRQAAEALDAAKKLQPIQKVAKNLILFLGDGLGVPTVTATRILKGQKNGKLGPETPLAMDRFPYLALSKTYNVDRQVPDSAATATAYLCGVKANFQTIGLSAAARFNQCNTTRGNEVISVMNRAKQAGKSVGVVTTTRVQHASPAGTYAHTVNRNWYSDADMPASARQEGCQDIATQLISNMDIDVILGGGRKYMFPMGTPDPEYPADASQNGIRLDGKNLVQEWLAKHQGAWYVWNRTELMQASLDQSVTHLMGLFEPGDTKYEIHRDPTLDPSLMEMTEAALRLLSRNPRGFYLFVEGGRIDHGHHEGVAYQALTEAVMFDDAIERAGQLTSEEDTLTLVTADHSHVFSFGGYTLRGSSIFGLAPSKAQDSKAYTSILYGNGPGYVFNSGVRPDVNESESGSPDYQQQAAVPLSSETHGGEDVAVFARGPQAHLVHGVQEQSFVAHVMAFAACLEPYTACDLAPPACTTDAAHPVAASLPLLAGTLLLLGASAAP
Chain of Phosphoethanolamine/phosphocholine phosphatase (Q8TCT1 whole entry): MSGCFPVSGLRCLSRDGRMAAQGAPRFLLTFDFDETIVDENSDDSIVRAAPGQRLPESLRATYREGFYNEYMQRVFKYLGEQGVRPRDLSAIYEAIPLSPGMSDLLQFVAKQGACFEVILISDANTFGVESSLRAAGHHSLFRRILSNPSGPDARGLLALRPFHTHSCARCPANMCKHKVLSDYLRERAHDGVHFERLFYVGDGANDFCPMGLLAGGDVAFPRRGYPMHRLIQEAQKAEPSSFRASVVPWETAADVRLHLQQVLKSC
Chain of Intestinal-type alkaline phosphatase (Mus musculus, UniProt P24822) (P24822 whole entry): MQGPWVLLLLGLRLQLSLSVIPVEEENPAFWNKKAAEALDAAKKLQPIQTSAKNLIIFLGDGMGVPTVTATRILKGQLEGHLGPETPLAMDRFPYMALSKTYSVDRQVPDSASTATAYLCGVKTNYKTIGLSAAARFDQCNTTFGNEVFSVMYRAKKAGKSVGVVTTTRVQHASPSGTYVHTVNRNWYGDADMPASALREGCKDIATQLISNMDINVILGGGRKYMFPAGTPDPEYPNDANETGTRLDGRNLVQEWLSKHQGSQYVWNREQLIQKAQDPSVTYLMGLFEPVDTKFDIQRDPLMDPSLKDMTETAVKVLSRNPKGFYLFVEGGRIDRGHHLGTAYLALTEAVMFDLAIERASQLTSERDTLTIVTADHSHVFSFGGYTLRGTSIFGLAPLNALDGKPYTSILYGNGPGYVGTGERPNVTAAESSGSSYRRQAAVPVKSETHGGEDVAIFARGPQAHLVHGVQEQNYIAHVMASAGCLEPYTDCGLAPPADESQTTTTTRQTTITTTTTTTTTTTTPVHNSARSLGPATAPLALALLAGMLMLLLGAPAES

The term EC50 denotes the concentration that produces a half-maximal response. On to `Cc1ccccc1OCCCCCn1ccnc1`, for which the EC50 in test [1] is 0.417 µM (active); in test [2] it was 0.54 µM (active); in test [3] it was 116 µM (active); in test [4], > 60 µM (not active); in [5] it was 0.417 µM (active).
For orientation: IC50 means the concentration needed to halve the response being measured. What is called CC50 is the concentration that lowers cell viability or growth by half. For `CCOC(=O)c1c(CN(C)C)oc2cc(CN(C)C)c(O)c(CSc3ccccc3)c12`, the IC50 was > 100 µM (active) at Nonstructural protein 1 and 22.6 µM (active) in the test on MDCK [6]. Moreover, the CC50 with MDCK [7] is 19.5 µM (active).
As usually defined, the AC50 is the midpoint of the concentration-response curve, whichever way the signal moves. With `CCCCOc1ccc(C2OC34CCCCC3C(C#N)(C#N)C2(C#N)C(=N)O4)cc1` (centres undefined), the AC50 at Keap1/Nrf2 was > 52 µM (inactive).
In the case of `COc1ccc(CN2CCC(n3nccc3NC(=O)CCCc3ccccc3)CC2)cc1C`, the EC50 in test [8] is 75 µM (active); in test [9], 77.4 µM (active); in [10], 72.5 µM (active); in test [11] it was 70.1 µM (active).
In the case of `Cc1ccc2ncnc(Nc3ccc(C)c(C)c3)c2c1`, the AC50 is 1.03 µM (active) in [12] and 63.8 µM (active) in test [13].
Consider `O=c1c2c([N+](=O)[O-])cc([N+](=O)[O-])cc2sn1-c1cccc(F)c1`, for which the IC50 in [14] was 30.1 µM (active); at Phosphomannomutase 2 it was 2.08 µM (active); in test [15] it was 0.0348 µM (active).
Turning to `Cc1cc(N2CCN(c3ccccc3C#N)CC2)nc2ccccc12`, the IC50 in test [16] was 8.9 µM (active).
